Patent US20070212366A1, “Use Of Mrp4-Inhibitors For The Treatment And/Or Prophylaxis Of Cardiovascular Diseases” (ERNST-MORITZ-ARNDT-UNIVERSITAT GREIFSWALD, priority 2003, published 2007)

Key:
MRP4 [1] = biological target: T1, MRP4 (Homo sapiens, UniProt O15439); assay: Inhibition of vanadate-sensitive [3H]ADP transport in dense platelet granules (vesicle rapid filtration); assay type: biochemical; settings: for [^3H]ADP transport (% of control): dense platelet vesicles, [3H]ADP 1 μmol/l, 0.4 mmol/l ATP ± 1 mmol/l orthovanadate, 2 min, mean ± SD of 3; for vanadate-sensitive ADP accumulation in the dense granular fraction of the sucrose gradient: result in words, refers to Table 1
T1 construct: Dense platelet vesicles (100 μg of protein) were incubated with [3H]ADP; from tissue; host or cells: platelets (crude membrane vesicles; dense granule fraction of a sucrose gradient)
T1 sequence (O15439 1-1325): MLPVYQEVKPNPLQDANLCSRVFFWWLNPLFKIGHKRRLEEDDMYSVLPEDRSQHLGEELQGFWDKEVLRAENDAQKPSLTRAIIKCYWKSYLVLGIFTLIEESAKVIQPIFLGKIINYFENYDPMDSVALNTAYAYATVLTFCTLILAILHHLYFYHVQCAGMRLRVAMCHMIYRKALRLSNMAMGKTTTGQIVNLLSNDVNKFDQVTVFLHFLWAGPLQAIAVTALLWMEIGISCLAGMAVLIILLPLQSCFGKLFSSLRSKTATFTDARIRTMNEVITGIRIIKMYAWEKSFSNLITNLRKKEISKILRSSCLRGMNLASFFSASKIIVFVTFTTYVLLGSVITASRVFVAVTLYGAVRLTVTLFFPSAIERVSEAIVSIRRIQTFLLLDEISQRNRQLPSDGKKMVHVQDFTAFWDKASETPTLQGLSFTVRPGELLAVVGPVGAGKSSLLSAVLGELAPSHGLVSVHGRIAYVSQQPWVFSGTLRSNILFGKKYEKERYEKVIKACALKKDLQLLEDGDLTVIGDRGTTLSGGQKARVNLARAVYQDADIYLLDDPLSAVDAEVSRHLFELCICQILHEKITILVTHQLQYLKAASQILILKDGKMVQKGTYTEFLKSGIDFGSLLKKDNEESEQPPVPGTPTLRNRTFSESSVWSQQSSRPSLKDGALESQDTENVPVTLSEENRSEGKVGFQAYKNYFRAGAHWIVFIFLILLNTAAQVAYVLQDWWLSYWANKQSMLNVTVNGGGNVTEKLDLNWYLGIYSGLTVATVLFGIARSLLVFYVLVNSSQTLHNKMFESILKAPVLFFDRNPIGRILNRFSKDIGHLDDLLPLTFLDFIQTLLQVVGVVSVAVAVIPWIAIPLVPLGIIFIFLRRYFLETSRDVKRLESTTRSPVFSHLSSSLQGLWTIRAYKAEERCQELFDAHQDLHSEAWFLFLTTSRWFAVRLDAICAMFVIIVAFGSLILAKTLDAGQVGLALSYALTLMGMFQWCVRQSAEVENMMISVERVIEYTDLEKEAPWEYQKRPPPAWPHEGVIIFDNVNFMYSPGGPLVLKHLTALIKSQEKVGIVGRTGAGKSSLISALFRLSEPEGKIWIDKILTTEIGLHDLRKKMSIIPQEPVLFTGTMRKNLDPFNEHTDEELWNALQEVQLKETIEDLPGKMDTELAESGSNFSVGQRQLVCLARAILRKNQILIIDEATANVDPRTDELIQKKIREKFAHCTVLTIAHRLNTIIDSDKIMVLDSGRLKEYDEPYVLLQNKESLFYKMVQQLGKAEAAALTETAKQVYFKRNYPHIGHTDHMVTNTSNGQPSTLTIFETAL
Text: In order to determine whether the observed difference in the [^3H]ADP uptake by the vesicles in the presence and absence of orthovanadate reflects a transmembrane movement rather than binding to the membrane surface, the influence of high osmolarity was investigated. […] In the presence of orthovanadate, 1 mol/l of sucrose only slightly influenced the [^3H]ADP association to the vesicles. […] Furthermore, the vanadate-sensitive ADP accumulation in the dense granular fraction of the sucrose gradient could be detected and was inhibited by dipyridamole, MK571 and cGMP (Table 1).
Transport of [^3H]ADP. An ATP-dependent transport of [3H]ADP (1 μmol/l) in the membrane vesicles was measured by rapid filtration, as is described for [^3H]cGMP, with the exception that the vesicles in incubation buffer supplemented with 0.4 mmol/l ATP, 10 mmol/l MgCl2 are incubated in the presence or absence of sodium orthovanadate (1 mmol/l). In order to investigate the effect of the osmolarity of the extra-vesicular medium, the vesicles were preincubated for 45 minutes at 4° C. in a 1 mol/l sucrose-containing buffer or in standard incubation buffer which contained 250 mmol/l of sucrose.
Dense platelet vesicles (100 μg of protein) were incubated with [3H]ADP (1 μmol/l) in the presence of 0.4 mmol/l of ATP or 0.4 mmol/l of ATP+1 mmol/l of orthovanadate for two minutes, and the difference in the vesicle-associated radioactivity was calculated. The compounds listed were added to the incubations with and without orthovanadate in the concentrations indicated. The difference is indicated as the percentage of the control (mean value+standard deviation of 3 determinations). The control value of the vanadate-sensitive [^3H]ADP transport in this experiment was […] of protein^−1 after 2 minutes.

MRP4 [2] = biological target: T1, MRP4; assay: [3H]ADP transport in crude platelet membrane vesicles; assay type: biochemical; settings: ATP 0.4 mmol/l plus 1 mM orthovanadate versus ATP alone; crude membranes
Method: In order to determine whether ADP can be a substrate for MRP4-mediated, ATP-dependent transport, the uptake of [3H]ADP (1 μM) in platelet membrane vesicles (crude membranes) in the presence of 0.4 mmol/l of ATP was measured over a period of 2 minutes. […] If ATP was replaced by 5′-AMP or the non-hydrolyzable ATP analog AMPPNP, which was customarily used in control incubations in order to calculate the ATP-dependent component of the transport, approximately a three to four-fold higher background binding of the [^3H]ADP to the membranes was observed, which increased only slightly with time (not shown). […] In order to show the ATP dependence and simultaneously to ensure identical initial ADP concentrations, the transport was measured in the presence of ATP with or without 1 mM orthovanadate, an inhibitor of ATP hydrolysis. A time-dependent increase in the vesicle-associated radioactivity in the presence of ATP was observed, in spite of the fact that [^3H]ADP was diluted by simultaneous formation of unlabeled ADP. […]
Transport of [^3H]ADP. An ATP-dependent transport of [3H]ADP (1 μmol/l) in the membrane vesicles was measured by rapid filtration, as is described for [^3H]cGMP, with the exception that the vesicles in incubation buffer supplemented with 0.4 mmol/l ATP, 10 mmol/l MgCl2 are incubated in the presence or absence of sodium orthovanadate (1 mmol/l). […]

Structure (SMILES) | [^3H]ADP transport (% of control) (MRP4 [1]; 10 μM substance) | [^3H]ADP transport (% of control) (MRP4 [1]; 100 μM substance) | vanadate-sensitive ADP accumulation in the dense granular fraction of the sucrose gradient (MRP4 [1]) | vesicle-associated radioactivity ([3H]ADP) (MRP4 [2])
OCCN(CCO)c1nc(N2CCCCC2)c2nc(N(CCO)CCO)nc(N3CCCCC3)c2n1 [Dipyridamole, dipyridamole] | 52.7 ± 5.2 % of control | 8.8 ± 0.4 % of control | inhibited | 
Nc1nc2c(ncn2[C@@H]2O[C@@H]3COP(=O)(O)O[C@H]3[C@H]2O)c(=O)[nH]1 [cGMP, cyclic GMP] |  | 28.7 ± 2.3 % of control | inhibited | 
CN(C)C(=O)CCSC(SCCC(=O)O)c1cccc(/C=C/c2ccc3ccc(Cl)cc3n2)c1 (centres unmarked) [MK571] |  | 40.7 ± 3.9 % of control | inhibited | 
[Na+].[Na+].[Na+].[O]=[V]([O-])([O-])[O-] [orthovanadate, sodium orthovanadate] |  |  |  | significantly reduced
